Patent US11413278B2, “Compounds and methods for promoting stress resistance” (priority 2015, dated 2022)
Where two headings read alike, the source gives them in different places.

What was measured:
[1] = test system: NRF2; test: in vitro; assay type: cell-based, human; details: for NRF2-dependency for H2O2-resistance, at 10 uM - with H2O2, 1st experiment: experiment 1 (1st); for NRF2-dependency for H2O2-resistance, at 10 uM - with H2O2, 2nd experiment: experiment 2 (2nd); for NRF2-dependency for H2O2-resistance, 1st experiment / NRF2-dependency for H2O2-resistance, 2nd experiment: with H2O2, NRF2 knockdown in WI-38 cells; for Assay 17: NRF2-dependency for H2O2-resistance: YES/NO; for NRF2-dependency of H2O2-resistance (NRF2 siRNA knockdown): at least 2 of 3 independent experiments
[2] = test system: WI-38 cells
Procedure: WI-38 cells were seeded on 384-well plates for 24 hrs and then incubated with small molecules for 24 hrs. […] Images were collected on an INCell Analyzer 2000 (GE) and analyzed with the Developer software.

[3] = test system: mTOR; test: mTOR inhibition (RPS6 phosphorylation status), In-Cell Western; assay type: cell-based, human
Method in brief: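 Read-out is In-Cell Western near-infrared imaging of phospho-RPS6 (Ser-235/236) against total RPS6, using overnight 4° C primary staining and DyLight 680/800 secondaries. Compounds were given to WI-38 cells for 24 hrs at three doses: 5, 10 and 20 μM.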

[4] = test system: FOXO3; test: FOXO3 siRNA knockdown: dependency for H2O2-resistance; assay type: cell-based, human; details: for FOXO3-dependency for H2O2-resistance (experiment 3): with & without H2O2, FOXO3 knockdown in WI-38 cells
Procedure: For qPCR analysis, WI-38 cells were treated with small molecules (at 10 μM) (biological quadruplicates) for 24 hrs and processed for RNA isolation and reverse transcription (RT) with the Cells-to-Ct Kit (Life Technologies), following manufacturer's instructions. RT products were diluted with H2O and used for qPCR analysis on an ABI 7300 system (Life Technologies) (technical triplicates). Relative expression levels of target genes were normalized to the genes B2M, PPIA and GAPDH. To knock down the expression of FOXO3 or NRF2, WI-38 cells were transfected, using the RNAiMAX reagents (Life Technologies), with siRNA oligos (at 10 nM final concentration, 10 ml culture medium) for FOXO3 (Life Technologies) or NRF2 (Integrated DNA Technologies) on 10-cm petri dishes for 36 hrs, and then detached and aliquoted onto 96-well (for qPCR analysis) or 384-well plates (for H2O2-stress treatment). ˜24 hrs later, small molecules were introduced and incubated with cells for 24 hrs. Cells were then either processed with the Cells-to-Ct Kit to prepare RT products for qPCR analysis or subjected to H2O2 (700 μM) for 3 hrs and assayed for viability. The knockdown efficiency of FOXO3 or NRF2 was checked at 36 hrs post-transfection and at the end as well. […]
Applicants used siRNA to knock down FOXO3 expression by ˜70% in an attempt to identify whether the activation of these genes depends on activity of FOXO3 and/or NRF2. […] We used siRNA to knock down FOXO3 expression by ˜60% to 70% (FIG. 3; see data in Table 6). […] (Given the caveat that FOXO3 was not fully knocked down, partial dependency was scored when the H2O2-resistance capacity was reduced by at least 25% but less than 50% upon siRNA knockdown). At least for Gr-7A and Gr-7C, which are structurally related, the observed FOXO3-dependency for H2O2-resistance is consistent with their strong effects to induce FOXO3 target genes (Tables 1a-1f, Table 6, & Table 15), including SOD2 and GADD45A.

[5] = no H2O2 stress, 10 uM, negative control 0.41% ± 0.23%
[6] = 10 uM, YES = resistance reduced by at least 50%, partial = 25% to 50%
[7] = Assay 8(k), without H2O2, at 10 uM
[8] = WI-38, no H2O2, control 0.4±0.2%

Compound	J = NRF2-dependency for H2O2-resistance ([1]; score)	J = NRF2-dependency for H2O2-resistance ([1]; summary score)	Percentage of propidium iodide-positive dead cells (no H2O2 stress treatment), at 10 uM [2, 5]	G = mTOR down-regulation ([3]; 2-point score)	G = mTOR down-regulation ([3]; summary score)	I = FOXO3-dependency for H2O2-resistance ([4]; score)	I = FOXO3-dependency for H2O2-resistance ([4]; summary score)	further results
O=[N+]([O-])c1ccccc1S(=O)(=O)Nc1cccc2cccnc12 [Gr-3A]	0	0	0.54% ± 0.16%,	0	0	0	0	
O=C(Nc1cccc(C(F)(F)F)c1)c1ccc([N+](=O)[O-])o1 [Gr-1E]	0	0	0.71% ± 0.28%,	0	0	0	0	
CCc1ccc(Oc2nc3ccccn3c(=O)c2/C=C(\C#N)C(=O)NCc2ccco2)cc1 [Gr-5B]	0	0	0.45% ± 0.15%,	0	0	0	0	
Oc1ncnc2sc3c(c12)CCC3 [O14]	0	0	0.41% ± 0.22%,	0	0	0	0	
CC(C)(C)c1ccc(OCC(=O)Nc2ccc3c4c(cccc24)C(=O)NC3=O)cc1 [O22]	1	1	0.37% ± 0.14%,	0	0	0	0	NRF2-dependency for H2O2-resistance, at 10 uM - with H2O2, 1st experiment ([1]; 10 uM): 1st, partial;; NRF2-dependency for H2O2-resistance, at 10 uM - with H2O2, 2nd experiment ([1]; 10 uM): 2nd, partial.; NRF2-dependency for H2O2-resistance, 1st experiment [1, 6]: partial;; NRF2-dependency for H2O2-resistance, 2nd experiment [1, 6]: partial.; Assay 17: NRF2-dependency for H2O2-resistance ([1]; 10 uM): YES; NRF2-dependency of H2O2-resistance (NRF2 siRNA knockdown) [1]: significantly attenuate
CCc1ccc(Oc2nc3ccccn3c(=O)c2/C=C(\C#N)C(=O)NC2CCCCC2)cc1 [Gr-5A]	0	0	0.48% ± 0.20%,	0	0	0	0	
Cc1ccc(NC(=O)c2ccc([N+](=O)[O-])o2)cc1C [Gr-1F]	0	0	3.27% ± 0.82%,	0	0	0	0	viability of non-stressed cells, reduced by ([1]; human, 24 h, 10 uM): by 50%); PI cell-death imaging without H2O2 (indicating potential toxicity) [2, 7]: YES; Percentage of propidium iodide-positive (dead) cells under normal conditions (qualitative) ([2]; WI-38, no H2O2): increased the percentage; PI-positive dead cells under normal conditions [2, 8]: 3.3±0.8%; FOXO3-dependency for H2O2-resistance, at 10 uM (experiment 3) - with & without H2O2 ([4]; 10 uM): YES; FOXO3-dependency for H2O2-resistance (experiment 3) [4, 6]: YES
CCCN1C/C(=C\c2ccc(F)cc2)C(=O)/C(=C/c2ccc(F)cc2)C1 [O15]	1	1	3.76% ± 0.68%,	0	0	1	1	NRF2-dependency for H2O2-resistance, at 10 uM - with H2O2, 1st experiment ([1]; 10 uM): 1st, YES;; NRF2-dependency for H2O2-resistance, at 10 uM - with H2O2, 2nd experiment ([1]; 10 uM): 2nd, YES.; NRF2-dependency for H2O2-resistance, at 10 uM (experiment 3) - with & without H2O2 ([1]; 10 uM, experiment 3, with & without H2O2): YES; NRF2-dependency for H2O2-resistance (experiment 3) ([1]; 10 uM, with & without H2O2, NRF2 knockdown in WI-38 cells, YES = resistance reduced by at least 50%, partial = 25% to 50%): YES; NRF2-dependency for H2O2-resistance, 1st experiment [1, 6]: YES;; NRF2-dependency for H2O2-resistance, 2nd experiment [1, 6]: YES.; Assay 17: NRF2-dependency for H2O2-resistance ([1]; 10 uM): YES; Reduction of H2O2-resistance capacity upon NRF2 knockdown, on average ([1]; 3 of 3 experiments): ~90%; NRF2-dependency of H2O2-resistance (NRF2 siRNA knockdown) [1]: significantly attenuate; PI cell-death imaging without H2O2 (indicating potential toxicity) [2, 7]: YES; PI-positive dead cells under normal conditions [2, 8]: 3.8%±0.7%; FOXO3-dependency for H2O2-resistance, at 10 uM - with H2O2, 1st experiment ([4]; 10 uM, experiment 1 (1st), with H2O2): 1st, YES;; FOXO3-dependency for H2O2-resistance, at 10 uM (experiment 3) - with & without H2O2 ([4]; 10 uM): YES; FOXO3-dependency for H2O2-resistance (experiment 3) [4, 6]: YES; FOXO3-dependency for H2O2-resistance, 1st experiment ([4]; 10 uM, with H2O2, FOXO3 knockdown in WI-38 cells, YES = resistance reduced by at least 50%, partial = 25% to 50%): YES;; Assay 16: FOXO3-dependency for H2O2-resistance ([4]; 10 uM, YES/NO): YES; Requirement of FOXO3 to promote H2O2-resistance ([4]; FOXO3 siRNA, at least 2 of 3 independent experiments): required FOXO3
O=C1NCCCc2cc(Cl)sc21 [O1]	1	1	0.30% ± 0.13%,	0	0	0	0	NRF2-dependency for H2O2-resistance, at 10 uM - with H2O2, 1st experiment ([1]; 10 uM): 1st, partial;; NRF2-dependency for H2O2-resistance, at 10 uM - with H2O2, 2nd experiment ([1]; 10 uM): 2nd, partial.; NRF2-dependency for H2O2-resistance, 1st experiment [1, 6]: partial;; NRF2-dependency for H2O2-resistance, 2nd experiment [1, 6]: partial.; Assay 17: NRF2-dependency for H2O2-resistance ([1]; 10 uM): YES; NRF2-dependency of H2O2-resistance (NRF2 siRNA knockdown) [1]: significantly attenuate
CCCC(=O)Nc1ccc(-c2cn3cccc(C)c3n2)cc1 [O12]	0	0	0.45% ± 0.05%,	0	0	0	0	
O=C(Nc1nc(C23CC4CC(CC(C4)C2)C3)cs1)C(c1ccccc1)c1ccccc1 [O10]	0	0	0.54% ± 0.16%,	0	0	0	0	
O=C(Nc1cc(C(F)(F)F)ccc1Cl)c1ccc([N+](=O)[O-])o1 [Gr-1B]	0	0	1.03% ± 0.34%,	0	0	0	0	PI cell-death imaging without H2O2 (indicating potential toxicity) [2, 7]: YES; PI-positive dead cells under normal conditions [2, 8]: 1.0%±0.3%
Nc1ccccc1S(=O)(=O)Nc1cccc2cccnc12 [Gr-3C]	0	0	0.57% ± 0.24%,	0	0	0	0	
COc1cc2c(no[n+]2[O-])n2nnnc12 [O11]	0	0		0	0	0	0	PI cell-death imaging without H2O2 (indicating potential toxicity) [2]: YES; PI-positive dead cells under normal conditions ([2]; human): 1.9%±0.7%; Percentage of propidium iodide-positive dead cells (no H2O2 stress treatment), at 10 uM ([2]; human): 1.86% ± 0.71%,
